The record followed here is patent publication US20120245137A1 (Zalicus Pharmaceuticals Ltd., priority 2009, published 2012).

A word on the IC50: it is the concentration needed to halve the response being measured.

In this assay the target is N-type calcium channel subunits (α1B, α2δ, and β3a) (Homo sapiens, UniProt Q00975). Nature of the assay: Block of Cav2.2 channel, whole cell voltage clamp, manual and PatchXpress. The class given is cell-based. The following applies: Table 5; table follows Assay Example 3 (whole cell voltage clamp / PatchXpress); assay not given. How it is done: Cells are grown either on poly-D-lysine coated coverglass (manual EP) or in TIS culture plates (PatchXpress). For the PatchExpress, cells are released from the flask using trypsin. In both cases, the […] solution is (in mM): 130 […], 10 EGTA, 10 HEPES, 2 MgCl2, 3 MgATP, pH 7.3 with CsOH.
Sequence of N-type calcium channel subunits (α1B, α2δ, and β3a) (Q00975 whole entry): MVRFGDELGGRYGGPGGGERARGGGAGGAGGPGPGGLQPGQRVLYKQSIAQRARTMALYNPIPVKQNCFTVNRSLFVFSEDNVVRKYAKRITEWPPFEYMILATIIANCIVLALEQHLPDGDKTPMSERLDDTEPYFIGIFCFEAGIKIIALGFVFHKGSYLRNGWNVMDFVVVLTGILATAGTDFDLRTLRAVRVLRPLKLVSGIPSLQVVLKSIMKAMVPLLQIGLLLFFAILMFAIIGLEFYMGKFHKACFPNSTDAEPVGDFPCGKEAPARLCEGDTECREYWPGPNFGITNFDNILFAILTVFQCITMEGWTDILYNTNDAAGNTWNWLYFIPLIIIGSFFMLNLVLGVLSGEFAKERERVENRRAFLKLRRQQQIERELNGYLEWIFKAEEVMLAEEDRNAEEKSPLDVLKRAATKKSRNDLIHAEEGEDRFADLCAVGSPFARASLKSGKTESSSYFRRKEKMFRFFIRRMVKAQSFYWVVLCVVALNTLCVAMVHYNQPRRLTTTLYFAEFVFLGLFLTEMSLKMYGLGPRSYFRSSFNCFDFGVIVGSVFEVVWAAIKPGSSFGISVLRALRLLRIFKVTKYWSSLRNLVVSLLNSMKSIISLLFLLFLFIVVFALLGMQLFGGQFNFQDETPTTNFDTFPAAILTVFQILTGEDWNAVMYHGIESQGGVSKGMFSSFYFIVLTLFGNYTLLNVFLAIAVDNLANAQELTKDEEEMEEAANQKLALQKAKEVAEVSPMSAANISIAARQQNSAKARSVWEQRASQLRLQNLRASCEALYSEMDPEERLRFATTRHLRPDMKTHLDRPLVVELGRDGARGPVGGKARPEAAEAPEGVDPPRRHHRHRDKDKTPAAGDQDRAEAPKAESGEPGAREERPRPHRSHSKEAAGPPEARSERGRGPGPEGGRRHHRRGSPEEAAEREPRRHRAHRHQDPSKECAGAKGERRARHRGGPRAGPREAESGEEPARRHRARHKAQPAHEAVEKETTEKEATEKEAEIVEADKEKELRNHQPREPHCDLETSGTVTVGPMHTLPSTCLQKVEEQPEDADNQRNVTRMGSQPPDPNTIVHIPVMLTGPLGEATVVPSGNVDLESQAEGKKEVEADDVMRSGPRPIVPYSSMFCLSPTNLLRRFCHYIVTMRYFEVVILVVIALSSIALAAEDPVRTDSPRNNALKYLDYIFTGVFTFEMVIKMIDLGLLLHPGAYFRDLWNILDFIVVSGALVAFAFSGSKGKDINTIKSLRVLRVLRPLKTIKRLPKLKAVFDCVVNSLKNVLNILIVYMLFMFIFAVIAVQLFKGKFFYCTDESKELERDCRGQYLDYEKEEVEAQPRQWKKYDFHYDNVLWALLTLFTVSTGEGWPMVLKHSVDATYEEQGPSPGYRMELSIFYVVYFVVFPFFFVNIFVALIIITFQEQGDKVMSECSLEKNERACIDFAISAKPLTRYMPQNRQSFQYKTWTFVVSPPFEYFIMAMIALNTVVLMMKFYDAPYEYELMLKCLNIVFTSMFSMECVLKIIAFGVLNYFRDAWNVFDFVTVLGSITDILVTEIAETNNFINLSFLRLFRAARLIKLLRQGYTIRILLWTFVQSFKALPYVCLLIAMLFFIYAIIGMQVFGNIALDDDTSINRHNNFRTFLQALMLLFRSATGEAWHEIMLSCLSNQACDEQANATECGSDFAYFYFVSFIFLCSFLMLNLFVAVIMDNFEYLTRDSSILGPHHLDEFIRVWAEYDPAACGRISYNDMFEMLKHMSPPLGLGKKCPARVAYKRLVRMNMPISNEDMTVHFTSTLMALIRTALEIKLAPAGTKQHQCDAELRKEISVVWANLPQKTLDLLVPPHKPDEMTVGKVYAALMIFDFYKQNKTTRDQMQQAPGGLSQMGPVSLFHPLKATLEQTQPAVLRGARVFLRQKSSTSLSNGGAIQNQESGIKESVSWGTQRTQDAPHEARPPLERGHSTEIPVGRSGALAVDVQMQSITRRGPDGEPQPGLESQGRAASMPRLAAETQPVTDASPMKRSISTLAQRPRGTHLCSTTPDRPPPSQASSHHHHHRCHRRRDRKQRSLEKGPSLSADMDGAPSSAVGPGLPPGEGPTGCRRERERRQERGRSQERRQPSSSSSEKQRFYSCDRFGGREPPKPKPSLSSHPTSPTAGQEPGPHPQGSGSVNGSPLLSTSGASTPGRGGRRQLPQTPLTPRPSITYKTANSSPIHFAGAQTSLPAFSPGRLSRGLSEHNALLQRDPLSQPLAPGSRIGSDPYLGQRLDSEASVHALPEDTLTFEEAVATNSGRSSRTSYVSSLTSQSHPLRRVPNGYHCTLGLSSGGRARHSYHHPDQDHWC
Sequence of N-type calcium channel subunits (α1B, α2δ, and β3a) (P54289 25-1103 partner): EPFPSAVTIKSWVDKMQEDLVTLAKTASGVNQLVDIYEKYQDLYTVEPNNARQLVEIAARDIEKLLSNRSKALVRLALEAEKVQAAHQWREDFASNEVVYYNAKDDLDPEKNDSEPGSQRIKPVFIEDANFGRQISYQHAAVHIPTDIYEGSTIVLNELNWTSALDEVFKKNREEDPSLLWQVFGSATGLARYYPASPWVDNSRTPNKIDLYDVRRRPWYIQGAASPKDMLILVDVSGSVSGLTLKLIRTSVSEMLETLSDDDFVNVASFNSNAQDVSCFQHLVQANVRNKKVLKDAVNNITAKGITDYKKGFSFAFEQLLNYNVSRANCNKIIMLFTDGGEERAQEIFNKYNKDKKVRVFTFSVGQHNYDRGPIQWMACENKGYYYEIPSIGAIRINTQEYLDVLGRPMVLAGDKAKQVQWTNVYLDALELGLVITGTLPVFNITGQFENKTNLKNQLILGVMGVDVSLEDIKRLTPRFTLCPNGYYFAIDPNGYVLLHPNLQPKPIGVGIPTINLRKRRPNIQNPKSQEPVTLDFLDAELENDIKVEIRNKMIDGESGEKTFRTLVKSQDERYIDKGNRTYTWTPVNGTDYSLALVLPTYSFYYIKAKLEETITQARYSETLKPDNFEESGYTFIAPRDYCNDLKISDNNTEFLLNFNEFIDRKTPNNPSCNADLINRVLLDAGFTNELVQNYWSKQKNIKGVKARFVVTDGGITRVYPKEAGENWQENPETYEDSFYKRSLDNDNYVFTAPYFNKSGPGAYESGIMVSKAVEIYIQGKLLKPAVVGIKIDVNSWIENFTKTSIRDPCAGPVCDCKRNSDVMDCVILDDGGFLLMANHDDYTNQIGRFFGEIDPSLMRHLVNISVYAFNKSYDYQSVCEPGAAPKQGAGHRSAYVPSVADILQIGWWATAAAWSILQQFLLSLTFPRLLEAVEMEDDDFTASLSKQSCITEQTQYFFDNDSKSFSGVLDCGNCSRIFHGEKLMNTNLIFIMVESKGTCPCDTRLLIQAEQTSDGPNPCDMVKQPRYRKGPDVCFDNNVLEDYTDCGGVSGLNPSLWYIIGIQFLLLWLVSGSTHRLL
Sequence of N-type calcium channel subunits (α1B, α2δ, and β3a) (P54284 whole entry partner): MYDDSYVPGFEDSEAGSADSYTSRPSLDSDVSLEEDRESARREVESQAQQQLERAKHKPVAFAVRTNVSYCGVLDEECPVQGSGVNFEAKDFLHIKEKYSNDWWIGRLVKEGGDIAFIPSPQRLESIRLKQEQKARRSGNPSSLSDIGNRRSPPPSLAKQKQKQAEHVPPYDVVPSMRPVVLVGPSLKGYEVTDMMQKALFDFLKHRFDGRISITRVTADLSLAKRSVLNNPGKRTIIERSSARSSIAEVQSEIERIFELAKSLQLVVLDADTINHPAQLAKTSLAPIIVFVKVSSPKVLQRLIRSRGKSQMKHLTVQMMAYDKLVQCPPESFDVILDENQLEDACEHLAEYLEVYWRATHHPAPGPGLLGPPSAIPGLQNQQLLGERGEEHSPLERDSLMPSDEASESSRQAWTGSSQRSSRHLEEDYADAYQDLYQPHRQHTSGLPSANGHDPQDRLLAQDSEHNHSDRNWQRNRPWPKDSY
Microelectrodes are fabricated from borosilicate glass and fire-polished. […] The reference electrode is a silver-silver chloride pellet. Voltages are not corrected for the liquid junction potential between the internal and external solutions and leak is subtracted using the P/n procedure. Solutions are applied to cells by bath perfusion via gravity. The experimental chamber volume is—0.2 mL. and the perfusion rate is 0.5-2 mL/min. Flow of suction through the chamber is maintained at all times. Measurement of current amplitudes is performed with […] software (HEKA Elektronik).
PatchXpress (Molecular Devices) is a 16-well whole-cell automated patch clamp device that operates asynchronously with fully integrated fluidics. […] Capacitance and series resistance compensation is automated. No correction for liquid junction potentials is employed. Leak is subtracted using the P/n procedure. Compounds are added to cells with a pipettor from a 96-well compound plate. Voltage protocols and the recording of membrane currents are performed using the PatchXpress software/hardware system. Current amplitudes are calculated with DataXpress software.
In both manual and automated patch clamp, cells are voltage clamped at […] or −90 m V and 50 ms pulses to +20 mV are applied every 15 sec (0.067 Hz). Compounds are added in escalating doses to measure % inhibition. Percent inhibition is calculated from the ratio of the curerent amplitude in the presence and absence of compound. When multiple doses are achieved per cell, IC50 values are calculated.
For the compound `Cn1nc(C(F)(F)F)cc1C(=O)NC[C@]1(O)CC[C@@H](S(=O)(=O)c2cccc(C(F)(F)F)c2)CC1` [Compound 231, N-(((1S,4S)-1-hydroxy-4-(3-(trifluoromethyl)phenylsulfonyl)cyclohexyl)methyl)-1-methyl-3-(trifluoromethyl)-1H-pyrazole-5-carboxamide], the IC50 came to 1870 nM.

In the case of `O=C(N[C@H]1CC[C@H](S(=O)(=O)c2cccc(C(F)(F)F)c2)CC1)c1ccnn1CC(F)(F)F` [Compound 180, 1-(2,2,2-trifluoroethyl)-N-((1R,4R)-4-(3-(trifluoromethyl)phenylsulfonyl)cyclohexyl)-1H-pyrazole-5-carboxamide], the IC50 came to 3350 nM.

As for `O=C(N[C@H]1CC[C@H](CS(=O)(=O)c2cccc(C(F)(F)F)c2)CC1)c1ccc(OCC(F)(F)F)nc1` [Compound 171, 6-(2,2,2-trifluoroethoxy)-N-((1R,4R)-4-((3-(trifluoromethyl)phenylsulfonyl)methyl)cyclohexyl)nicotinamide], the IC50 stood at 480 nM.

For the compound `O=C(CN1CCCCC1)N[C@H]1CC[C@H](CS(=O)(=O)c2cccc(C(F)(F)F)c2)CC1` [Compound 164, 2-(piperidin-1-yl)-N-((1R,4R)-4-((3-(trifluoromethyl)phenylsulfonyl)methyl)cyclohexyl)acetamide], the IC50 came out at 1810 nM.

`O=C(NC[C@]1(O)CC[C@@H](S(=O)(=O)c2cccc(C(F)(F)F)c2)CC1)c1cc(C(F)(F)F)ccn1` [Compound 237, N-(((1S,4S)-1-hydroxy-4-(3-(trifluoromethyl)phenylsulfonyl)cyclohexyl)methyl)-4-(trifluoromethyl)picolinamide]: the 50% inhibitory concentration (IC50) amounted to 4560 nM.

Take `CC(C)([C@H]1C[C@H](NC(=O)c2cnc(C(F)(F)F)nc2)C1)S(=O)(=O)c1cccc(C(F)(F)F)c1` [Compound 437, 2-(trifluoromethyl)-N-((1R,3R)-3-(2-(3-(trifluoromethyl)phenylsulfonyl)propan-2-yl)cyclobutyl)pyrimidine-5-carboxamide]: the IC50 was found to be 720 nM.

Regarding “2-(methylsulfonyl)-6-(trifluoromethyl)- N-(((1S,3S)-3- (3-(trifluoromethyl) phenylsulfonyl)cyclobutyl) methyl)nicotinamide [Compound 382]”, the IC50 came out at 1710 nM.

Consider `O=C(N[C@H]1C[C@@H](S(=O)(=O)c2cccc(C(F)(F)F)c2)C1)c1ccc(C(F)(F)F)nc1` [Compound 430, 6-(trifluoromethyl)-N-((1S,3S)-3-(3-(triffuoromethyl)phenylsulfonyl)cyclobutyl) nicotinamide], for which the IC50 was greater than 10000 nM.

Consider `O=C(N[C@H]1CC[C@H](S(=O)(=O)c2cccc(C(F)(F)F)c2)CC1)c1ccnc(Cl)c1` [Compound 181, 2-chloro-N-((1R,4R)-4-(3-(trifluoromethyl)phenylsulfonyl)cyclohexyl)isonicotinamide], for which the IC50 came out at 1830 nM.

In the case of `O=C(NC[C@H]1C[C@H](S(=O)(=O)c2cc(F)cc(C(F)(F)F)c2)C1)c1cc(C(F)(F)F)ccn1` [Compound 397, N-(((1R,3R)-3-(3-fluoro-5-(trifluoromethyl)phenylsulfonyl)cyclobutyl)methyl)-4-(trifluoromethyl)picolinamide], the IC50 was found to be 910 nM.

`O=C(NC[C@H]1CC[C@@H](S(=O)(=O)c2cccc(C(F)(F)F)c2)CC1)c1cc(C(F)(F)F)n[nH]1` [Compound 34, 3-(trifluoromethyl)-N-(((1S,4S)-4-(3-(trifluoromethyl)phenylsulfonyl)cyclohexyl)methyl)-1H-pyrazole-5-carboxamide]: the IC50 is 640 nM.

On to `O=C(N[C@H]1CC[C@@H](S(=O)(=O)c2cccc(C(F)(F)F)c2)CC1)c1ccnc(Cl)c1` [Compound 194, 2-chloro-N-((1S,4S)-4-(3-(trifluoromethyl)phenylsulfonyl)cyclohexyl)isonicotinamide], for which the IC50 was 1330 nM.

As to `CC(C)(C)c1nc([C@H]2C[C@@H](S(=O)(=O)c3cccc(C(F)(F)F)c3)C2)c[nH]1` [Compound 447, 2-tert-butyl-4-((1S,3S)-3-(3-(trifluoromethyl)phenylsulfonyl)cyclobutyl)-1H-imidazole], the IC50 came out at 1830 nM.

`CC(C)([C@H]1C[C@H](NC(=O)c2ccc(C(F)(F)F)cc2S(C)(=O)=O)C1)S(=O)(=O)c1cccc(C(F)(F)F)c1` [Compound 439, 2-(methylsulfonyl)-4-(trifluoromethyl)-N-((1R,3R)-3-(2-(3-(tritluoromethyl)phenylsulfonyl)propan-2-yl)cyclobutyl)benzamide]: the IC50 was 400 nM.

With `O=S(=O)(c1cccc(C(F)(F)F)c1)[C@H]1C[C@H](c2c[nH]c(-c3ccc(C(F)(F)F)nc3)n2)C1` [Compound 445, 2-(trifluoromethyl)-5-(4-((1R,3R)-3-(3-(trifluoromethyl)phenylsulfonyl)cyclobutyl)-1H-imidazol-2-yl)pyridine], the IC50 was found to be 200 nM.

With `Cn1nc(C(F)(F)F)cc1C(=O)N[C@H]1C[C@H](S(=O)(=O)c2cccc(C(F)(F)F)c2)C1` [Compound 226, 1-methyl-3-(trifluoromethyl)-N-(trans-3-(3-(trifluoromethyl)phenylsulfonyl)cyclobutyl)-1H-pyrazole-5-carboxamide], the half-inhibitory concentration (IC50) stood at 2150 nM.

For `O=S(=O)(c1cccc(C(F)(F)F)c1)[C@H]1C[C@@H](c2c[nH]c(-c3ccc(C(F)(F)F)nc3)n2)C1` [Compound 446, 2-(trifluoromethyl)-5-(4-((1S,3S)-3-(3-(trifluoromethyl)phenylsulfonyl)cyclobutyl)-1H-imidazoI-2-yl)pyridine], the IC50 turned out to be 810 nM.

On to `O=C(N[C@H]1CC[C@H](CS(=O)(=O)c2cccc(C(F)(F)F)c2)CC1)c1nsc(Cl)c1Cl` [Compound 170, 4,5-dichloro-N-((1R,4R)-4-((3-(trifluoromethyl)phenylsulfonyl)methyl)cyclohexyl)isothiazole-3-carboxamide], for which the IC50 was found to be 4920 nM.

As for `Cc1nn(C)c(C)c1S(=O)(=O)NC[C@H]1C[C@H](S(=O)(=O)c2cccc(C(F)(F)F)c2)C1` [Compound 421, 1,3,5-trimethyl-N-(((1R,3R)-3-(3-(trifluoromethyl)phenylsulfonyl)cyclobutyl)methyl)-1H-pyrazole-4-sulfonamide], the IC50 was found to be 5580 nM.

Take `O=C(N[C@H]1CC[C@H](S(=O)(=O)c2cccc(C(F)(F)F)c2)CC1)c1ccc(OCC(F)(F)F)nc1` [Compound 184]: the IC50 came out at 3110 nM.

For `COc1cc(F)cc(C(=O)NC[C@H]2C[C@H](S(=O)(=O)c3cccc(C(F)(F)F)c3)C2)c1` [Compound 375, 3-fluoro-5-methoxy-N-(((1R,3R)-3-(3-(trifluoromethyl)phenylsulfonyl)cyclobutyl)methyl)benzamide], the concentration for half-maximal inhibition (IC50) is 260 nM.

Regarding `O=C(NC[C@H]1C[C@H](S(=O)(=O)c2cccc(C(F)(F)F)c2)C1)c1ccc(OCC(F)(F)F)nc1` [Compound 376, 6-(2,2,2-trifluoroethoxy)-N-(((1R,3R)-3-(3-(trifluoromethyl)phenylsulfonyl)cyclobutyl)methyl)nicotinamide], the IC50 is 540 nM.

As for `O=C(N[C@H]1CC[C@@](F)(S(=O)(=O)c2cccc(C(F)(F)F)c2)CC1)c1ccc(O)c(C(F)(F)F)c1` [Compound 247, N-((1S,4S)-4-fluoro-4-(3-(trifluoromethyl)phenylsulfonyl)cyclohexyl)-4-hydroxy-3-(trifluoromethyl)benzamide], the IC50 was determined as 1010 nM.

Consider `O=C(CN[C@H]1C[C@H](S(=O)(=O)c2cccc(C(F)(F)F)c2)C1)N1CCC(C(F)(F)F)CC1` [Compound 214, 2-(trans-3-(3-(trifluoromethyl)phenylsulfonyl)cyclobutylamino)-1-(4-(trifluoromethyl)piperidin-1-yl)ethanone], for which the IC50 was 2090 nM.

Consider `O=C(NC[C@]1(O)CC[C@@H](S(=O)(=O)c2cccc(C(F)(F)F)c2)CC1)c1ccc(C(F)(F)F)cn1` [Compound 232, N-(((1S,4S)-1-hydroxy-4-(3-(trifluoromethyl)phenylsulfonyl)cyclohexyl)methyl)-5-(trifluoromethyl)picolinamide], for which the IC50 worked out at 2660 nM.

Turning to `Cc1cc(C(=O)N[C@H]2CC[C@H](S(=O)(=O)c3cccc(C(F)(F)F)c3)CC2)c(C(F)(F)F)o1` [Compound 185, 5-methyl-2-(trifluoromethyl)-N-((1R,4R)-4-(3-(trifluoromethyl)phenylsulfonyl)cyclohexyl)furan-3-carboxamide], the IC50 was 1630 nM.

“3-(methylsulfonyl)-5-(trifluoromethyl)- N-(((1S,3S)- 3-(3-(trifluoromethyl) phenylsulfonyl)cyclobutyl) methyl)picolinamide [Compound 388]”: the IC50 came to 1060 nM.

Turning to `O=C(CCC(F)(F)F)NC1CCC(S(=O)(=O)c2cccc(C(F)(F)F)c2)CC1` (centres unmarked) [Compound 12, 4,4,4-trifluoro-N-(4-(3-(trifluoromethyl)phenylsulfonyl)cyclohexyl)butanamide], the IC50 was found to be 1940 nM.

`CC(C)NC(=O)CN[C@H]1CC[C@H](S(=O)(=O)c2cccc(C(F)(F)F)c2)CC1` [Compound 72, N-isopropyl-2-((1R,4R)-4-(3-(trifluoromethyl)phenylsulfonyl)cyclohexylamino)acetamide]: the IC50 was 8580 nM.
